Experimental data reported in patent US6720324B2, “Selective melanin concentrating hormone-1 (MCH1) receptor antagonists and uses thereof” (Synaptic Pharmaceutical Corporation, priority 2000, dated 2004).
Where a name gives a salt, the structure may show the parent alone. Read-outs that look alike come from different tables or passages of the source.

Columns and labels:
human MCH1 receptor = human MCH1 receptor (Homo sapiens, UniProt Q99705); experiment: Functional assay: intracellular calcium mobilization (antagonist potency Kb); format: cell-based; set-up: expressed in transfected cells; host or cells: COS-7 cells, transient, DEAE-dextran, plasmid pEXJ.HR-TL231 (ATCC 203197)
Sequence of human MCH1 receptor (Q99705 whole entry): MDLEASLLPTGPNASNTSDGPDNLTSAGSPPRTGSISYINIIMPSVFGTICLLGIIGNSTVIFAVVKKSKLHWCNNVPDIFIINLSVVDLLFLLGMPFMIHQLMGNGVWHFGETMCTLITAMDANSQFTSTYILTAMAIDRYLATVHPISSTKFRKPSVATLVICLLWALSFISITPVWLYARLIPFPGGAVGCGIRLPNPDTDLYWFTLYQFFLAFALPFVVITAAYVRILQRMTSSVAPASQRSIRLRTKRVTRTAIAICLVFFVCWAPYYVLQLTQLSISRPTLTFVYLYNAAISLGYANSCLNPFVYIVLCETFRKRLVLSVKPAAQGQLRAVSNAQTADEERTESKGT
Method: Intracellular calcium mobilization assays for the MCH1 receptor were carried out using plasmid pEXJ.HR-TL231 (ATCC Accession No. 203197). COS-7 cells were transiently transfected with DNA encoding the MCH1 receptor utilizing the DEAE-dextran method as described above. The intracellular free calcium concentration was measured by fluorescent imaging using the calcium sensitive fluorscent dye Fluo-3. COS-7 cells expressing the human MCH1 receptor were seeded onto sterile 96 well plates, washed with Hank's balanced salt solution (HBSS), containing 20 mM HEPES, 2.5 mM probenecid, and 0.1% BSA, and loaded with the same buffer containing 3.8 μM Fluo-3 for 1 hour at 37° C. After washing with HBSS to remove the fluo-3 solution, cells were equilibrated for 10 minutes.

[1] = Table 1, cloned human MCH1 receptor, functional assay, read-out: Kb (nM) hMCH1
[2] = read-out: hMCH1 Kb, Table 3, antagonist potency at the human MCH1 receptor
[3] = Table 2, antagonist potency at the human MCH1 receptor, read-out: hMCH1 Kb
[4] = Table 3, antagonist potency at the human MCH1 receptor, read-out: hMCH1 Kb

Compound	Kb (human MCH1 receptor; [1]) [nM]	melting point [°C]	further results
O=C(NC1CCN(CCC2CCc3ccccc3C2=O)CC1)c1ccccc1 (stereo not drawn) [Example 5]	258	158 to 159	
COC(=O)C1=C(C)NC(=O)N(C(=O)NCCCN2CCC3(CC2)OCc2ccccc23)C1c1ccc(F)c(F)c1 (stereo not drawn) (as salt: hydrochloride) [Example 20, 4-(3,4-DIFLUORPHENYL)-6-METHYL-2-OXO-3-{[3-(4-SPIRO[ISOBENZO-FURAN-1(3H),4′-PIPERIDINE]PROPYL}-1,2,3,4-TETRAHYDROPYRIMIDINE-5-CARBOXYLIC ACID METHYL ESTER]		178 to 182	
O=[N+]([O-])c1ccccc1S(=O)(=O)n1nnc2ccccc21 [Example 31, 1H-1,2,3-BENZOTRIAZOL-1-YL (2-NITROPHENYL) SULFONE]	7		
COCC1=C(C(=O)OC)C(c2ccc(F)c(F)c2)N(C(=O)NCCCN2CCC(OC(C)=O)(c3ccccc3)CC2)C(=O)N1 (stereo not drawn) (as salt: hydrochloride) [Example 3, (1)-1,2,3,6-TETRAHYDRO-1-{N-[3-(4-O-ACETYL)-4-PHENYLPIPERIDIN-1-YL]PROPYL}CARBOXAMIDO-5-METHOXYCARBONYL-4-METHOXYMETHYL-6-(3,4-DIFLUOROPHENYL)-2-OXOPYRIMIDINE]		82 to 84	
O=C(CCCN1CCC(O)(c2ccc(Cl)cc2)CC1)c1ccc(Cl)cc1 [Example 29]			Kb (human MCH1 receptor): 9 nM; Kb (human MCH1 receptor; read-out: hMCH1 Kb, Table 2, antagonist potency at the human MCH1 receptor): 9 nM; Kb (human MCH1 receptor; [2]): 9 nM
COC(=O)C1=C(C)NC(=O)N(C(=O)NCCCN2CCC3(CCc4ccccc43)CC2)C1c1ccc2nonc2c1 (racemic) [Example 21]	28		
CCCCN(CCCC)c1ccc(CNC[C@H]2CC[C@H](NC(=O)c3cccc4ccccc34)CC2)cc1 [Example 13, N1-[4-([4-(DIBUTYLAMINO)BENZYL]AMINOMETHYL)CYCLOHEXYL]-1-NAPHTH-AMIDE]	284		Kb (human MCH1 receptor; [3]): 284 nM; Kb (human MCH1 receptor; [4]): 284 nM
COC(=O)C1=C(C)NC(=O)N(C(=O)NCCCN2CCC3(CCc4ccccc43)CC2)C1c1ccc(F)c(F)c1 (stereo not drawn) [Example 32, (1)-1,2,3,6-TETRAHYDRO-1-{N-[4-(DIHYDROINDENE)-1-YL}PROPYL}-CARBOXAMIDO-5-METHOXYCARBONYL-2-OXO-6-(3,4-DIFLUORO)-4-METHYL-PYRIMIDINE]		150 to 153	Kb (human MCH1 receptor): 67 nM
Cc1cc(O)cc(O)c1/C=N/c1ccc(-c2cn3ccccc3n2)cc1 [Example 27]	279		Kb (human MCH1 receptor; [3]): 279 nM
Fc1ccc(C(c2ccc(F)cc2)N2CCN(C/C=C/c3ccccc3)CC2)cc1 [Example 26, 1-[BIS(4-FLUOROPHENYL)METHYL]-4-(3-PHENYL-2-PROPENYL)PIPERAZINE]	260		Kb (human MCH1 receptor; [3]): 260 nM
(1)-1,2,3,6-TETRAHYDRO-1-{N-[4-(3,4-DIHYDRO-2-OXOSPIRONAPHTHALENE-1(2H))-PIPERIDINE-1-YL]PROPYL}CARBOXAMIDO-5-METHOXY-CARBONYL-2-OXO-6-(3,4-DIFLUOROPHENYL)-4-METHYL-PYRIMIDINE [Example 24]	102		
COC(=O)C1=C(C)NC(=O)N(C(=O)NCCCN2CCC(c3ccccc3)CC2)C1c1ccc2nonc2c1 (stereo not drawn) [Example 8, 6-(BENZOFURAZAN-5-YL)-1,2,3,6-TETRAHYDRO-5-METHOXYCARBONYL-4-METHYL-2-OXO-1-{N-[3-(4-PHENYLPIPERIDIN-1-YL)PROPYL]}CARBOXAMIDO-PYRIMIDINE]	88		
COCC1=C(C(=O)OC)C(c2ccc(F)c(F)c2)N(C(=O)NCCCN2CCC(OC(C)=O)(c3ccccc3)CC2)C(=O)N1 (stereo not drawn) [Example 3, (1)-1,2,3,6-TETRAHYDRO-1-{N-[3-(4-O-ACETYL)-4-PHENYLPIPERIDIN-1-YL]PROPYL}CARBOXAMIDO-5-METHOXYCARBONYL-4-METHOXYMETHYL-6-(3,4-DIFLUOROPHENYL)-2-OXOPYRIMIDINE]			Kb (human MCH1 receptor): 201 nM
(1)-1,2,3,6-TETRAHYDRO-1-{N-[4-(3,4-DIHYDRO-2-OXOSPIRONAPHTHALENE-1(2H))-PIPERIDINE-1-YL]PROPYL}CARBOXAMIDO-5-METHOXYCARBONYL-2-OXO-6-(3,4-BENZOFURAZAN)-4-METHYLPYRIMIDINE HYDROCHLORIDE [Example 23]	68		
CCCCN(CCCC)c1ccc(CN2CCC(CNC(=O)N3C(=O)NC(C)=C(C(=O)OC)C3c3ccc4nonc4c3)CC2)cc1 (stereo not drawn) [Example 6]	42		Kb (human MCH1 receptor; [3]): 42 nM; Kb (human MCH1 receptor; [4]): 42 nM
COC(=O)C1=C(C)NC(=O)N(C(=O)NCCCN2CCC(c3ccccc3)CC2)C1c1ccc(F)c(F)c1 (stereo not drawn) [Example 11, 6-(3,4-DIFLOUROPHENYL)-1,2,3,6-TETRAHYDRO-5-METHOXYCARBONYL-4-METHYL-2-OXO-1-{N-[3-(4-PHENYLPIPERIDIN-1-YL) PROPYL]}CARBOXAMIDO-PYRIMIDINE]	331		
COC(=O)C1=C(C)NC(=O)N(C(=O)NCCCN2CCC3(CC2)OCc2ccccc23)C1c1ccc(F)c(F)c1 (stereo not drawn) [Example 20, 4-(3,4-DIFLUORPHENYL)-6-METHYL-2-OXO-3-{[3-(4-SPIRO[ISOBENZO-FURAN-1(3H),4′-PIPERIDINE]PROPYL}-1,2,3,4-TETRAHYDROPYRIMIDINE-5-CARBOXYLIC ACID METHYL ESTER]			Kb (human MCH1 receptor): 5 nM; Kb (human MCH1 receptor; read-out: Kb (nM) hMCH1, Table 1, cloned human MCH1 receptor, functional assay): 5 nM; Kb (human MCH1 receptor; [2]): 5 nM
O=C(CCCN1CCC(NC(=O)c2ccccc2)CC1)c1ccc(Cl)cc1 (as salt: HCl) [Example 28, 1-[3-(4-CHLOROBENZOYL)]PROPYL-4-BENZAMIDOPIPERIDINE]		243 to 244	

Further lines, with some results ahead:

Kb (human MCH1 receptor; [1]) [nM]	melting point [°C]	Compound	further results
276		COC(=O)C1=C(C)NC(=O)N(C(=O)NCCCN2CCN(c3ccccc3C)CC2)C1c1ccc(F)c(F)c1 (stereo not drawn) [Example 35, 1,2,3,6-TETRAHYDRO-1{N-[4-(2′-METHYL-PHENYL)PIPERAZIN-1-YL]-PROPYL}-CARBOXAMIDO-4-METHYL-6-(3,4-DIFLUOROPHENYL)-2-OXO-PYRIMIDINE]	
	132 to 135	COCC1=C(C(=O)OC)C(c2ccc(F)c(F)c2)N(C(=O)NCCCN2CCC(O)(c3ncccc3C)CC2)C(=O)N1 (single isomer, unassigned; (+)) [Example 16]	
	66 to 71	COC(=O)C1=C(C)NC(=O)N(C(=O)NCCCN2CCN(c3ccccc3C)CC2)C1c1ccc(F)c(F)c1 (stereo not drawn) (as salt: hydrochloride) [Example 35, 1,2,3,6-TETRAHYDRO-1{N-[4-(2′-METHYL-PHENYL)PIPERAZIN-1-YL]-PROPYL}-CARBOXAMIDO-4-METHYL-6-(3,4-DIFLUOROPHENYL)-2-OXO-PYRIMIDINE]	
	168 to 172	COCC1=C(C(=O)OC)C(c2ccc(F)c(F)c2)N(C(=O)NCCCN2CCC(c3cccc4ccccc34)CC2)C(=O)N1 (single isomer, unassigned; (+)) [Example 14, (+)-1,2,3,6-TETRAHYDRO-1-{N-[4-(1-NAPHTHYL)-PIPERIDIN-1-YL]PROP-YL}CARBOXAMIDO-4-METHOXYMETHYL-6-(3,4-DIFLUOROPHENYL)-2-OXO-PYRIMIDINE-5-CARBOXYLIC ACID METHYL ESTER]	
18		COCC1=C(C(=O)OC)C(c2ccc(F)c(F)c2)N(C(=O)NCCCN2CC=C(c3cccc(NC(C)=O)c3)CC2)C(=O)N1 (stereo not drawn) [Example 2, METHYL 3-[(3-4-[3-(ACETYLAMINO)PHENYL]-1,2,3,6-TETRAHYDRO-1-PYR-IDINYLPROPYL)AMINO]CARBONYL-4-(3,4-DIFLUOROPHENYL)-6-(METHOXY-METHYL)-2-OXO-1,2,3,4-TETRAHYDRO-5-PYRIMIDINECARBOXYLATE]	Kb (human MCH1 receptor; [3]): 18 nM; Kb (human MCH1 receptor; [4]): 18 nM
	150 to 153	COC(=O)C1=C(C)NC(=O)N(C(=O)NCCCN2CCN(c3ccccc3[N+](=O)[O-])C[C@@H]2C)C1c1ccc(F)c(F)c1 (single isomer, unassigned; (+)) (as salt: HCl) [Example 34]	
182		COC(=O)C1=C(C)NC(=O)N(C(=O)NCCCN2CCN(c3ccccc3[N+](=O)[O-])C[C@@H]2C)C1c1ccc(F)c(F)c1 (single isomer, unassigned; (+)) [Example 34]	
479		CN1CN(c2ccccc2)C2(CCN(CCCC(=O)c3ccc(F)cc3)CC2)C1=O [Example 30, N-METHYL-8-[4-(4-FLUOROPHENYL)-4-OXOBUTYL]-1-PHENYL-1,3,8-TRI-AZASPIRO-[4.5]DECAN-4-ONE]	Kb (human MCH1 receptor; [3]): 479 nM
	180 to 182	COC(=O)C1=C(C)NC(=O)N(C(=O)NCCCN2CCC3(CC2)OCc2ccccc23)C1c1ccc2nonc2c1 (single isomer, unassigned) (as salt: hydrochloride) [Example 18]	
